# Columns and labels:
# [1] = tested on: HBeAg (surrogate marker for cccDNA) in HepDES19 cells; experiment: Engineered HepDES19 primary screen assay (HBeAg ELISA); type: cell-based, HBV; settings: Hepatitis B virus, 120 h, HBeAg in culture supernatant, 5 days incubation, read-out: IC50 (HepDES19 primary screen assay, inhibition of extracellular HBeAg level)
# Summary of the method: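 HepDES19 cells pre-induced by Tet withdrawal for 8 days, frozen, then seeded and dosed after 24 h with half-log compound dilutions (1% DMSO final). After 5 days at 37 °C, HBeAg measured by ELISA and viability by CCK-8; IC50 from 4-parameter logistic fit.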
# [2] = tested on: HBV (HBsAg) in HBV-infected PHH; experiment: Cryopreserved primary human hepatocytes (PHH) HBV infection assay, extracellular HBsAg (CLIA); type: cell-based; settings: Hepatitis B virus, Hepatocyte, 216 h, read-out: HBsAg IC50
# Description: This assay is used to confirm the anti-HBV effect of the compounds in HBV PHH infection assay. Cryopreserved PHH (BioreclamationIVT, Lot YJM) was thawed at 37° C. and gently transferred into pre-warmed InVitroGRO HT medium (BioreclamationIVT, Cat. S03317). The mixture was centrifuged at 70 relative centrifugal force (RCF) for 3 minutes at RT, and the supernatant was discarded. Pre-warmed InVitroGRO CP medium (BioreclamationIVT, Cat #S03316) was added to the cell pellet to gently re-suspend cells. The cells were seeded at the density of 5.8×10^4 cells per well to collagen I coated 96-well plate (Gibco, Cat. A1142803) with the InVitroGRO CP medium. All plates were incubated at 37° C. with 5% CO2 and 85% humidity.
# At 20 hours after plating, the medium was changed to PHH culture medium (Dulbecco's Modified Eagle Medium (DMEM)/F12 (1:1) (Gibco, Cat. 11320-033), 10% fetal bovine serum (Gibco Cat. 10099141), 100 U/mL penicillin, 100 μg/mL streptomycin (Gibco, Cat. 151401-122), 5 ng/mL human epidermal growth factor (Invitrogen Cat. PHG0311L), 20 ng/mL dexamethasone (Sigma, Cat. D4902) and 250 ng/mL human recombinant insulin (Gibco, Cat. 12585-014)). And the cells were incubated at 37° C. with 5% CO2 and 85% humidity for 4 hours. The medium was then changed to pre-warmed PHH culture medium containing 4% polyethylene glycol (PEG) MW8000 (Sigma, Cat. P1458-50ML) and 1% DMSO (Sigma, Cat. D2650). 5.8×10^6 genomic equivalents of HBV were added into the medium.
# At 24 hours post-infection, the cells were gently washed with PBS and refreshed with PHH culture medium supplemented with 1% DMSO, and 0.25 mg/mL Matrix gel (Corning, Cat. 356237) at 200 μL per well. All plates were immediately placed in at 37° C. CO2 incubator. 24 hours later, serial dilutions of compounds made with DMSO were further diluted with the same culture medium (PHH culture medium supplemented with 1% DMSO and 0.25 mg/mL Matrix gel as described above) before they were added to the cells to reach desired final compound concentrations and 1% DMSO concentration. The medium containing the compounds were refreshed every three days.
# At 9 days post-compound treatment, extracellular HBsAg level were measured with Chemiluminescence Immuno Assay (CLIA) kit (Autobio, HBsAg Quantitative CLIA). Extracellular HBV DNA was extracted by MagNA Pure 96 system (Roche) and then determined
# HBsAg IC50 and HBV DNA IC50 values were derived from the dose-response curve using 4 parameter logistic curve fit method. The compounds of formula (I) have HBsAg IC50<20 μM, particularly <1 μM; and HBV DNA IC50<50 μM. Results of Cryopreserved PHH assay are given in TableBIO2.
smiles,measurement,setting,value
CC(=O)NCCCOc1cc(C(F)(F)F)ccc1-c1cc(=O)c2cccc(Cl)c2o1 [Example 098],IC50,[1],4.34 µM
same,IC50,[2],6.34 µM
"CS(=O)(=O)NC(=O)C1CCCN1CCOc1cc(C(F)(F)F)ccc1-c1cc(=O)c2cccc(Cl)c2o1 (centres unmarked) [Example 073, 1-[2-[2-(8-chloro-4-oxo-chromen-2-yl)-5-(trifluoromethyl)phenoxy]ethyl]-N-methylsulfonyl-pyrrolidine-2-carboxamide]",IC50,[1],0.14 µM
same,IC50,[2],7.47 µM
"CS(=O)(=O)NC(=O)[C@H]1CCN(CCCOc2cc(C(F)(F)F)ccc2-c2cc(=O)c3cccc(Cl)c3o2)C1 [Example 066, (3S)-1-[3-[2-(8-chloro-4-oxo-chromen-2-yl)-5-(trifluoromethyl)phenoxy]propyl]-N-methylsulfonyl-pyrrolidine-3-carboxamide]",IC50,[1],2.79 µM
same,IC50,[2],9.03 µM
"O=C(O)C1CN(CCOc2cc(Br)ccc2-c2cc(=O)c3cccc(Cl)c3o2)C1 [Example 019, 1-[2-[5-bromo-2-(8-chloro-4-oxo-chromen-2-yl)phenoxy]ethyl]azetidine-3-carboxylic acid]",IC50,[1],0.57 µM
same,IC50,[2],7.13 µM
"O=C(O)[C@@H]1CCN(CC(O)COc2cc(Br)ccc2-c2cc(=O)c3cccc(Cl)c3o2)C1 (stereo partly drawn) [Example 165, (3R)-1-[3-[5-bromo-2-(8-chloro-4-oxo-chromen-2-yl)phenoxy]-2-hydroxy-propyl]pyrrolidine-3-carboxylic acid]",IC50,[1],3.19 µM
same,IC50,[2],9.98 µM
"O=C(O)[C@H]1CCN(CCOc2cc(Br)ccc2-c2cc(=O)c3c(C(F)(F)F)ccc(Cl)c3o2)C1 [Example 042, (3S)-1-[2-[5-bromo-2-[8-chloro-4-oxo-5-(trifluoromethyl)chromen-2-yl]phenoxy]ethyl]pyrrolidine-3-carboxylic acid]",IC50,[1],0.05 µM
same,IC50,[2],7.3 µM
"O=C(O)C1CC2CCC(C1)N2CCOc1cc(Br)ccc1-c1cc(=O)c2cccc(Cl)c2o1 (centres unmarked) [Example 025, 8-[2-[5-bromo-2-(8-chloro-4-oxo-chromen-2-yl)phenoxy]ethyl]-8-azabicyclo[3.2.1]octane-3-carboxylic acid]",IC50,[1],0.79 µM
same,IC50,[2],7.63 µM
"O=C(O)C1CCC(NCCCOc2cc(C(F)(F)F)ccc2-c2cc(=O)c3cccc(Cl)c3o2)C1 (centres unmarked) [Example 007, 3-[3-[2-(8-chloro-4-oxo-chromen-2-yl)-5-(trifluoromethyl)phenoxy]propylamino]cyclopentanecarboxylic acid]",IC50,[1],9.5 µM
same,IC50,[2],4.95 µM
"NC(=O)C(=O)NCCOc1cc(C(F)(F)F)ccc1-c1cc(=O)c2cccc(Cl)c2o1 [Example 146, N′-[2-[2-(8-chloro-4-oxo-chromen-2-yl)-5-(trifluoromethyl)phenoxy]ethyl]oxamide]",IC50,[1],0.33 µM
same,IC50,[2],7.08 µM
"O=C(O)C1CN(CCCOc2cc(C(F)(F)F)ccc2-c2cc(=O)c3cccc(Cl)c3o2)CCO1 (centres unmarked) [Example 018, 4-[3-[2-(8-chloro-4-oxo-chromen-2-yl)-5-(trifluoromethyl)phenoxy]propyl]morpholine-2-carboxylic acid]",IC50,[1],0.41 µM
same,IC50,[2],5.13 µM
"NC(=O)NCCCOc1cc(C(F)(F)F)ccc1-c1cc(=O)c2cccc(Cl)c2o1 [Example 157, 3-[2-(8-chloro-4-oxo-chromen-2-yl)-5-(trifluoromethyl)phenoxy]propylurea]",IC50,[1],4.15 µM
same,IC50,[2],3.4 µM
"O=C(O)C(=O)NCCOc1cc(C(F)(F)F)ccc1-c1cc(=O)c2cccc(Cl)c2o1 [Example 119, 2-[2-[2-(8-chloro-4-oxo-chromen-2-yl)-5-(trifluoromethyl)phenoxy]ethylamino]-2-oxo-acetic acid]",IC50,[1],3.43 µM
same,IC50,[2],0.67 µM
"C[S+]([O-])C1CCN(CCOc2cc(C(F)(F)F)ccc2-c2cc(=O)c3cccc(Cl)c3o2)CC1 (centres unmarked) [Example 093, 8-chloro-2-[2-[2-(4-methylsulfinyl-1-piperidyl)ethoxy]-4-(trifluoromethyl)phenyl]chromen-4-one]",IC50,[1],5.98 µM
same,IC50,[2],6.13 µM
"O=C(O)C1CN(CCOCCOc2cc(Br)ccc2-c2cc(=O)c3cccc(Cl)c3o2)CCO1 (centres unmarked) [Example 049, 4-[2-[2-[5-bromo-2-(8-chloro-4-oxo-chromen-2-yl)phenoxy]ethoxy]ethyl]morpholine-2-carboxylic acid]",IC50,[1],2.81 µM
same,IC50,[2],7.81 µM
"NS(=O)(=O)NCCCOc1cc(C(F)(F)F)ccc1-c1cc(=O)c2cccc(Cl)c2o1 [Example 160, 8-chloro-4-oxo-2-[2-[3-(sulfamoylamino)propoxy]-4-(trifluoromethyl)phenyl]chromene]",IC50,[1],2.43 µM
same,IC50,[2],10 µM
"O=C(O)C1CCN(CCCOc2cc(Br)ccc2-c2cc(=O)c3cccc(Cl)c3o2)C1 (centres unmarked) [Example 001, 1-[3-[5-bromo-2-(8-chloro-4-oxo-chromen-2-yl)phenoxy]propyl]pyrrolidine-3-carboxylic acid]",IC50,[1],0.35 µM
same,IC50,[2],5.43 µM
CS(=O)(=O)C1CCN(CCOc2cc(Br)ccc2-c2cc(=O)c3cccc(Cl)c3o2)C1 (centres unmarked) [Example 084],IC50,[1],0.59 µM
same,IC50,[2],3.48 µM
"O=C(O)[C@@H]1CCN(CCOc2cc(Br)ccc2-c2cc(=O)c3c(C(F)(F)F)ccc(Cl)c3o2)C1 [Example 041, (3R)-1-[2-[5-bromo-2-[8-chloro-4-oxo-5-(trifluoromethyl)chromen-2-yl]phenoxy]ethyl]pyrrolidine-3-carboxylic acid]",IC50,[1],0.03 µM
same,IC50,[2],5.48 µM
"O=C(O)[C@@H]1CCN(CCCOc2cc(Br)ccc2-c2cc(=O)c3cccc(Cl)c3o2)C1 [Example 005, (3R)-1-[3-[5-bromo-2-(8-chloro-4-oxo-chromen-2-yl)phenoxy]propyl]pyrrolidine-3-carboxylic acid]",IC50,[1],8.93 µM
same,IC50,[2],8.34 µM
"O=C(O)C1CN(CCCOc2cc(Br)ccc2-c2cc(=O)c3cccc(Cl)c3o2)CCO1 (centres unmarked) [Example 002, 4-[3-[5-bromo-2-(8-chloro-4-oxo-chromen-2-yl)phenoxy]propyl]morpholine-2-carboxylic acid]",IC50,[1],0.25 µM
same,IC50,[2],4.01 µM
"NS(=O)(=O)CCNCCCOc1cc(C(F)(F)F)ccc1-c1cc(=O)c2cccc(Cl)c2o1 [Example 080, 2-[3-[2-(8-chloro-4-oxo-chromen-2-yl)-5-(trifluoromethyl)phenoxy]propylamino]ethanesulfonamide]",IC50,[1],3.14 µM
same,IC50,[2],4.02 µM
CC(=O)N1CCN(CCOc2cc(Br)ccc2-c2cc(=O)c3cccc(Cl)c3o2)CC1 [Example 082],IC50,[1],0.24 µM
same,IC50,[2],7.56 µM
"COc1cc(-c2cc(=O)c3cccc(Cl)c3o2)c(OCCCN2CC[C@H](C(=O)O)C2)cc1Br [Example 017, (3S)-1-[3-[5-bromo-2-(8-chloro-4-oxo-chromen-2-yl)-4-methoxy-phenoxy]propyl]pyrrolidine-3-carboxylic acid]",IC50,[1],0.34 µM
same,IC50,[2],3.42 µM
"NC(=O)CNCCOc1cc(C(F)(F)F)ccc1-c1cc(=O)c2cccc(Cl)c2o1 [Example 167, 2-[2-[2-(8-chloro-4-oxo-chromen-2-yl)-5-(trifluoromethyl)phenoxy]ethylamino]acetamide]",IC50,[1],3.3 µM
same,IC50,[2],7.94 µM
"O=C(O)C(=O)NCC(O)COc1cc(C(F)(F)F)ccc1-c1cc(=O)c2cccc(Cl)c2o1 (centres unmarked) [Example 166, 2-[[3-[2-(8-chloro-4-oxo-chromen-2-yl)-5-(trifluoromethyl)phenoxy]-2-hydroxy-propyl]amino]-2-oxo-acetic acid]",IC50,[1],1.57 µM
same,IC50,[2],3.03 µM
